Data: paper PMC9570898, “Comparing Variants of the Cell-Penetrating Peptide sC18 to Design Peptide-Drug Conjugates” (Molecules, 2022)
No end group written: not given here.

Legend:
[1] = Peptide interaction with anionic giant unilamellar vesicles; settings: 1 µM CF-labeled peptide, 30 min, room temperature, fluorescence microscopy, Oyster405 dye outflow
Method: A thin agarose layer is necessary to build GUVs. Therefore, 1% super low melting agarose was melted in deionized water by heating up in a microwave. Afterward, 200 µL were coated on a clean slide and dried at 50 °C for 30 min on a heating plate; 10 µL of respective lipid solution was added onto the agarose layer and subsequently distributed and dried for 1 h using an exicator under vacuum to get rid of the chloroform. For staining the lipid layer, 0.2 mol % Atto550 was added. Afterward, a sealing ring was added around the pink lipid film. Lipids were hydrated with dextran buffer (10 mM HEPES buffer (pH 7.4), 50 mM KCl, 50 mM NaCl and 1 mg/mL Dextran) containing 3 µL Oyster405 (Luminaris GmbH, Münster, Germany) encapsulating the blue dye. Slides were incubated for 2 h at RT. […] For fluorescence microscopy analysis, lipids were transferred into an eight-well Ibidi® plate; 40 µL of respective GUV solution was mixed with 1 µM peptide solutions and filled up to 100 µL with dextran buffer. […] Afterward, GUVs were analyzed using a BZ-X800E microscope (Keyence, Osaka, Japan) followed by image processing with ImageJ.
Figure 4 Peptide interaction with […] (GUVs) composed of DOPC/DOPE/DOPG (40:30:30); 1 µM solutions of sC18 variants were incubated with GUVs for 30 min and inspected using a fluorescence microscope (Keyence). […]

HeLa cells [2] = test: Fluorescence microscopy of intracellular distribution in HeLa cells; assay type: cell-based, human; settings: 10 µM CF-labeled peptide, 30 min, confocal fluorescence microscopy
Method: Cells were seeded into 8-well plates (HeLa cells 35,000 and HFF-1 25,000 cells per well, respectively) and grown to 80–90% confluency. Cells were treated with 10 μM CF- or dox-labeled peptides in a serum-free medium for 30 min at 37 °C. Ten minutes prior to the end of the incubation time, nuclei were stained with Hoechst33342. The peptide solution was removed, and cells were washed five times with PBS and covered with fresh medium including FBS. Microscopic analysis was performed using an inverse confocal TCS SP8 microscope (Leica Microsystems, Wetzlar, Germany), equipped with a 63× oil-immersion objective. Images were recorded with LAS X software (LAS_X_Core_3.7.6_25997, Leica Microsystems, Wetzlar, Germany). For the GUV analysis and the uptake of the peptide-drug conjugates the Keyence fluorescence tabletop microscope BZ-X800E (Keyence, Osaka, Japan), with a 60× oil immersion lens was used. Images were recorded with Keyence software (BZ-800X_Analyzer 1.1.1.8, Keyence, Osaka: Japan) and evaluated with Fiji.
Figure 6 Fluorescence microscope analysis of 5 µM conjugates after 30 min of incubation at 37 °C in HeLa and HFF-1 cells. Red: peptides coupled to red fluorophore Doxorubicin; blue: Hoechst 33342 nuclear stain; BF: brightfield to identify living cells; scale bar is 20 µm.

HeLa cells [3] = test: Cytotoxicity (resazurin) assay in HeLa cells; settings: 24 h, 25 µM peptide, resazurin assay
Method: For cell viability assay, cells were (15,000 HeLa, 17,000 MCF-7 and 12,000 HFF-1 cells per well) seeded onto a 96-well plate and grown to 80–90% confluency. Cells were incubated with several peptide concentrations in a serum-free growth medium for 24 h under standard growth conditions. For the positive control, cells were treated with 70% EtOH for 7 min. After washing with DPBS, resazurin solution (10% in serum-free media, v/v) was incubated with the cells for 1 h under standard growth conditions. The cell viability was determined relative to untreated cells by measurement of the resorufin product at 595 nm (λex = 550 nm) on a Tecan infinite M200 plate reader (Tecan Group AG, Männedorf, Switzerland).
Figure 2 (A,B): Cytotoxicity profiles of the peptides in HeLa and HEK-293 cells. Cells were cultured and incubated at pH 7.4 for 24 h with different concentrations of peptide solutions. Untreated cells served as negative control; cells treated with 70% ethanol as positive control. Values from the positive control were subtracted from all data, and the untreated cells were set to 100%; assays were performed with n = 3 in triplicate. (C): Flow cytometry analysis of HeLa or HEK-293 cells after incubating 1 and 10 µM peptide solutions for 30 min at 37 °C; assays were conducted in triplicate n = 3. (D): Confocal laser scanning microscopy analysis of 10 µM CF-labeled peptides after 30 min of incubation in HeLa cells. Green: CF-labeled peptides; blue: Hoechst 33342 nuclear stain; scale bar is 10 µm.
Figure 5 (A): Cytotoxicity assay using HFF-1 cells. Different PDC concentrations were incubated with the cells for 24 h at 37 °C and a resazurin assay was conducted. (B): Dose-response curves for peptide drug conjugates were obtained using the resazurin assay. For this, HeLa cells were treated with various conjugate concentrations (2.5–70 µM) for 24 h at 37 °C. (C): Quantification of PDC internalization in HeLa cells; 10 µM PDC solutions were incubated with cells for 30 min at 37 °C and cells were inspected using a flow cytometer; assays were conducted in triplicate n = 3.

## RLRKLLRKFLRK-NH2 [sC18*^R,L]
[1]
  interaction with anionic GUVs: strongest accumulation leading to membrane disruption events and complete dye outflow from the vesicles
HeLa cells [2]
  intracellular accumulation / uptake pattern: highly enriched all over the cytosol including uptake in the nuclei
HeLa cells [3]
  cell viability at 25 µM: ~35%
